Reference: patent publication US10874743B2, “IRAK degraders and uses thereof” (Kymera Therapeutics, Inc., priority 2017, dated 2020)

Molecular target: T1, IRAK4 (Homo sapiens, UniProt Q9NWZ3)
T1 sequence (Q9NWZ3 1-460): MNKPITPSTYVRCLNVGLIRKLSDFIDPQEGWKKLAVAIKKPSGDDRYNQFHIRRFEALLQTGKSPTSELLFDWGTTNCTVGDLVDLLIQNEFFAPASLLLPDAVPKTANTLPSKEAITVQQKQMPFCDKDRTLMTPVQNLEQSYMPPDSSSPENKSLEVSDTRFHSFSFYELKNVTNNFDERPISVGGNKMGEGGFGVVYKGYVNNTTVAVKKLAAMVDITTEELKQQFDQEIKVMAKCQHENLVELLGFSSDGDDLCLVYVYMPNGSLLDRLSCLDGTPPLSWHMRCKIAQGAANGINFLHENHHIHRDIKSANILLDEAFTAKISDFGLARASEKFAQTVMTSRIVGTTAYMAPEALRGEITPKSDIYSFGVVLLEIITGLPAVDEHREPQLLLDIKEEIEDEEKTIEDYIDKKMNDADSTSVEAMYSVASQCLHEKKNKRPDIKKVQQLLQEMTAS
Assay: OCI-LY-10 degradation assay (western blot, % IRAK4 degraded after 4 hours)
Assay type: cell-based
Set-up: endogenous in cells; host or cells: OCI-LY10
Settings: OCI-LY10 cells; for OCI-LY10 % IRAK4 Degradation (0.01 uM) / OCI-LY10 % IRAK4 Degradation (0.1 uM) / OCI-LY10 % IRAK4 Degradation (1 uM): 4 hours; for OCI-LY10 % IRAK4 Degradation (0.01 uM): 0.01 uM compound; for OCI-LY10 % IRAK4 Degradation (0.1 uM): 0.1 uM compound; for OCI-LY10 % IRAK4 Degradation (1 uM): 1 uM compound; for OCI-LY10 % IRAK4 Degradation: IRAK4 degraded after 4 hours, western blot
How it was run: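 IRAK4 loss after 4 h at 37° C was scored A (>50%), B (>20-50%) or C (<20%) from infrared western blots of RIPA lysates, 20-25 μg protein per lane. Compound was applied at 0.003-10 μM final to OCI-LY10 cells cultured in RPMI-1640 with 20% FBS and 55 μM 2-ME.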

Compound	OCI-LY10 % IRAK4 Degradation (0.01 uM)	OCI-LY10 % IRAK4 Degradation (0.1 uM)	OCI-LY10 % IRAK4 Degradation (1 uM)	OCI-LY10 % IRAK4 Degradation
O=C1CCC(N2C(=O)c3cccc(NCCOCCN4CCO[C@@H](CNC(=O)c5ccc(-n6cc(NC(=O)c7coc(-c8ccnc(NCC(F)(F)F)c8)n7)c(C(F)F)n6)cc5)C4)c3C2=O)C(=O)N1 (some centres unmarked) [I-282]	C (<20% degradation)	C (<20% degradation)	C (<20% degradation)	
O=C1CCC(N2C(=O)c3cccc(CCOCCN4CCC(n5cc(NC(=O)c6coc(-c7ccnc(NCC8CC8)c7)n6)c(C(F)F)n5)CC4)c3C2=O)C(=O)N1 (centres unmarked) [I-257]	C (<20% degradation)	C (<20% degradation)	C (<20% degradation)	
CN(CCCc1cccc2c1C(=O)N(C1CCC(=O)NC1=O)C2=O)Cc1ccc(-n2cc(NC(=O)c3coc(-c4ccncc4)n3)c(C(F)F)n2)cc1 (centres unmarked) [I-365]	C (<20% degradation)	C (<20% degradation)	C (<20% degradation)	
N#Cc1cnc2c(cnn2-c2cc(NC3CC3)c(C(=O)N[C@H]3CC[C@H](COCCOCCOCCNc4cccc5c4C(=O)N(C4CCC(=O)NC4=O)C5=O)C3)cn2)c1 (some centres unmarked) [I-35]				C (<20% degradation)
O=C1CCC(N2C(=O)c3cccc(CCCOCCOCCNC(=O)c4ccc(-n5cc(NC(=O)c6coc(-c7ccnc(NCC8CC8)c7)n6)c(C(F)F)n5)cc4)c3C2=O)C(=O)N1 (centres unmarked) [I-244]	C (<20% degradation)	B (>20-50% degradation)	B (>20-50% degradation)	
O=C1CCC(N2C(=O)c3cccc(NCCCCCNCCNC(=O)c4ccc(-n5cc(NC(=O)c6coc(-c7ccnc(NCC8CC8)c7)n6)c(C(F)F)n5)cc4)c3C2=O)C(=O)N1 (centres unmarked) [I-245]	C (<20% degradation)	B (>20-50% degradation)	A (>50% degradation)	
NCc1nn(-c2ccc(C(=O)NCCOCCOCCNc3cccc4c3C(=O)N(C3CCC(=O)NC3=O)C4=O)cc2)cc1NC(=O)c1coc(-c2ccnc(NCC(F)(F)F)c2)n1 (centres unmarked) [I-215]	A (>50% degradation)	A (>50% degradation)	A (>50% degradation)	
O=C1CCC(N2C(=O)c3ccc(OCc4cn(CCOCCOCCNCc5ccc(-n6cc(NC(=O)c7coc(-c8ccnc(NCC9CC9)c8)n7)c(C(F)F)n6)cc5)nn4)cc3C2=O)C(=O)N1 (centres unmarked) [I-345]	C (<20% degradation)	A (>50% degradation)	A (>50% degradation)	
CC[C@@H]1[C@H](F)C(=O)N[C@@H]1COc1nccc2cc(C(=O)NCCOCCOCCOCCOCCNC(=O)COc3cccc4c3C(=O)N(C3CCC(=O)NC3=O)C4=O)c(OC)cc12 (some centres unmarked) [I-103]				C (<20% degradation)
O=C1CCC(N2C(=O)c3ccc(NCCOCCN4CCN(CCOCCNCc5ccc(-n6cc(NC(=O)c7coc(-c8ccnc(NCC9CC9)c8)n7)c(C(F)F)n6)cc5)CC4)cc3C2=O)C(=O)N1 (centres unmarked) [I-349]	C (<20% degradation)	B (>20-50% degradation)	A (>50% degradation)	
O=C1CCC(N2C(=O)c3cccc(NCCc4cnnn4CCOCCOCCNCc4ccc(-n5cc(NC(=O)c6coc(-c7ccnc(NCC8CC8)c7)n6)c(C(F)F)n5)cc4)c3C2=O)C(=O)N1 (centres unmarked) [I-342]	C (<20% degradation)	B (>20-50% degradation)	A (>50% degradation)	
CC(C)(OCCOCCNC(=O)COc1cccc2c1C(=O)N(C1CCC(=O)NC1=O)C2=O)C(F)CNC(=O)c1cnc(-n2ncc3cc(C#N)cnc32)cc1NC1CC1 (centres unmarked) [I-101]				C (<20% degradation)
N#Cc1cnc2c(cnn2-c2cc(NC3CC3)c(C(=O)N[C@H]3CC[C@H](C(=O)NCCOCCOCCOCCOCCNc4cccc5c4C(=O)N(C4CCC(=O)NC4=O)C5=O)CC3)cn2)c1 (some centres unmarked) [I-22, 6-(5-cyano-1H-pyrazolo[3,4-b]pyridin-1-yl)-4-(cyclopropylamino)-N-((1r,4r)-4-((14-((2-(2,6-dioxopiperidin-3-yl)-1,3-dioxoisoindolin-4-yl)amino)-3,6,9,12-tetraoxatetradecyl)carbamoyl)cyclohexyl)nicotinamide]				C (<20% degradation)
NC(=O)c1nn(-c2ccc(C(=O)NCCCCCNCCNc3cccc4c3C(=O)N(C3CCCNC3=O)C4=O)cc2)cc1NC(=O)c1coc(-c2ccnc(NCC(F)(F)F)c2)n1 (centres unmarked) [I-333]	C (<20% degradation)	C (<20% degradation)	C (<20% degradation)	
O=C1CCC(N2C(=O)c3cccc(NCCOCCOCCNC(=O)c4ccc(-n5cc(NC(=O)c6coc(-c7ccnc(NCC8CC8)c7)n6)c(C(F)F)n5)cc4)c3C2=O)C(=O)N1 (centres unmarked) [I-246]	C (<20% degradation)	A (>50% degradation)	A (>50% degradation)	
N#Cc1cnc2c(cnn2-c2cc(NC3CC3)c(C(=O)NCC(F)COCCOCCNC(=O)COc3cccc4c3C(=O)N(C3CCC(=O)NC3=O)C4=O)cn2)c1 (centres unmarked) [I-95, 6-(5-Cyanopyrazolo[3,4-b]pyridin-1-yl)-4-(cyclopropylamino)-N-[3-[2-[2-[[2-[2-(2,6-dioxo-3-piperidyl)-1,3-dioxo-isoindolin-4-yl]oxyacetyl]amino]ethoxy]ethoxy]-2-fluoro-propyl]pyridine-3-carboxamide]				C (<20% degradation)
N#Cc1cnc2c(cnn2-c2cc(NC3CC3)c(C(=O)N[C@H]3C[C@H](C(=O)NCCOCCOCCNc4cccc5c4C(=O)N(C4CCC(=O)NC4=O)C5=O)C3)cn2)c1 (stereo partly drawn) [I-27, 6-(5-cyano-1H-pyrazolo[3,4-b]pyridin-1-yl)-4-(cyclopropylamino)-N-((1R,3R)-3-((2-(2-(2-((2-(2,6-dioxopiperidin-3-yl)-1,3-dioxoisoindolin-4-yl)amino)ethoxy)ethoxy)ethyl)carbamoyl)cyclobutyl)nicotinamide]				C (<20% degradation)
Cc1ccc(NS(=O)(=O)c2ccc(CNC(=O)COCCOCCOCCOCCOCCNC(=O)c3ccc(-n4cc(NC(=O)c5coc(-c6ccnc(NCC(F)(F)F)c6)n5)c(C(N)=O)n4)cc3)cc2)c2[nH]cc(C#N)c12 [I-114]				C (<20% degradation)
CN(CCOCCOCCCc1cccc2c1C(=O)N(C1CCC(=O)NC1=O)C2=O)C(=O)c1ccc(-n2cc(NC(=O)c3coc(-c4ccncc4)n3)c(C(N)=O)n2)cc1 (centres unmarked) [I-226]	B (>20-50% degradation)	A (>50% degradation)	A (>50% degradation)	
NC(=O)c1nn(-c2ccc(C(=O)NCCOCCOCCOCCCc3cccc4c3CN(C3CCC(=O)NC3=O)C4=O)cc2)cc1NC(=O)c1coc(-c2ccnc(NCC3CC3)c2)n1 (centres unmarked) [I-238]	C (<20% degradation)	B (>20-50% degradation)	A (>50% degradation)	
Cc1ncsc1-c1ccc(CNC(=O)[C@@H]2C[C@@H](O)CN2C(=O)[C@@H](NC(=O)COCCCCCOCCCCCNC(=O)CN2CCC(Nc3cccc(-c4cnc5ccc(C#N)cn45)n3)C2)C(C)(C)C)cc1 (some centres unmarked) [I-205]				C (<20% degradation)
O=C1CCC(N2C(=O)c3ccc(NCCOCCOCCNCc4ccc(-n5cc(NC(=O)c6coc(-c7ccnc(NCC8CC8)c7)n6)c(C(F)F)n5)cc4)cc3C2=O)C(=O)N1 (centres unmarked) [I-354]	C (<20% degradation)	A (>50% degradation)	A (>50% degradation)	
N#Cc1cnc2c(cnn2-c2cc(NC3CC3)c(C(=O)N[C@H]3C[C@H](COCCOCCOCCOCCOCCNc4cccc5c4C(=O)N(C4CCC(=O)NC4=O)C5=O)C3)cn2)c1 (some centres unmarked) [I-36]				C (<20% degradation)
O=C1CCC(N2C(=O)c3cccc(NCCOCCOCC(F)CNC(=O)c4cnc(Nc5ccc6cnccc6n5)cc4NC4CC4)c3C2=O)C(=O)N1 (centres unmarked) [I-61]				C (<20% degradation)
CC(OCCOCCOCCNc1cccc2c1C(=O)N(C1CCC(=O)NC1=O)C2=O)C(F)CNC(=O)c1cnc(Nc2ccc3cnccc3n2)cc1NC1CC1 (centres unmarked) [I-62]				C (<20% degradation)
